{
  "source": "PubChem BioAssay AID624445",
  "about": "(Broad Institute, 2012)",
  "note": "Results filed as inconclusive are left out. Activity calls are given as the source filed them.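 How the source made its calls: active means fitted curve drops past -35% activity change at a concentration under twice the top valid tested dose; inconclusive means no clear call, values can overlap the other calls; inactive means the rest, including effects in the wrong direction.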",
  "data": [
    {"tested_on": "26S proteasome chymotrypsin-like activity (human)", "experiment": "proteasome chymotrypsin-like activity inhibition in cells, dose response, mechanism study for HSF1 activator project, cell-based, U2OS, Proteasome-Glo luminescence, dry powder, set 2 (AID 624445)", "details": "not given", "units": {"AC35": "µM"}, "values": [
      {"smiles": "Cc1cccc(CSc2nsc(N)n2)c1", "AC35": 35.2},
      {"smiles": "O=C(Nc1nc(SCc2ccccc2)ns1)C1CCC1", "AC35": 30.4},
      {"smiles": "Nc1nc(SCc2ccccc2)ns1", "AC35": 37.2}
    ]},
    {"tested_on": "26S proteasome chymotrypsin-like activity (human)", "experiment": "proteasome chymotrypsin-like activity inhibition in cells, dose response, mechanism study for HSF1 activator project, cell-based, U2OS, Proteasome-Glo luminescence, dry powder, set 2 (AID 624445)", "details": "at 38 µM (top of the series)", "values": [
      {"smiles": "Cc1ccccc1CSc1nnc(N)s1", "activity change, negative = inhibition": "-25.3% (inactive)"},
      {"smiles": "Nc1nc(SCc2ccc(Cl)cc2Cl)ns1", "activity change, negative = inhibition": "2.27% (inactive)"},
      {"smiles": "Nc1nc(SCc2ccccc2Cl)ns1", "activity change, negative = inhibition": "-20.5% (inactive)"},
      {"smiles": "Cc1ccccc1CSc1nsc(N)n1", "activity change, negative = inhibition": "-21.8% (inactive)"},
      {"smiles": "Nc1nc(S(=O)(=O)Cc2ccccc2)ns1", "activity change, negative = inhibition": "-17.1% (inactive)"},
      {"smiles": "O=C(Nc1nc(SCc2ccccc2)ns1)C1CC=CCC1", "note": "(stereo unspecified)", "activity change, negative = inhibition": "-30.5% (inactive)"},
      {"smiles": "Nc1nc(SCc2ccc(F)cc2)ns1", "activity change, negative = inhibition": "-32.9% (inactive)"},
      {"smiles": "Cc1ccccc1CSc1n[nH]c(N)n1", "activity change, negative = inhibition": "9.01% (inactive)"}
    ]}
  ]
}
